Measured values reported in patent US8916565B2, “Pyrrolopyrazine-spirocyclic piperidine amides as modulators of ion channels” (priority 2011, dated 2014).
pIC50: −log10 of the molar value.

target: human NaV subtype, like NaV 1.7 (Homo sapiens, UniProt Q15858); test: E-VIPR optical membrane potential assay with electrical stimulation; format: cell-based; conditions: active against one or more sodium channels; Table 3 does not name the assay or NaV subtype; read-out: Binned Activity Data (IC50)
Sequence (Q15858 whole entry): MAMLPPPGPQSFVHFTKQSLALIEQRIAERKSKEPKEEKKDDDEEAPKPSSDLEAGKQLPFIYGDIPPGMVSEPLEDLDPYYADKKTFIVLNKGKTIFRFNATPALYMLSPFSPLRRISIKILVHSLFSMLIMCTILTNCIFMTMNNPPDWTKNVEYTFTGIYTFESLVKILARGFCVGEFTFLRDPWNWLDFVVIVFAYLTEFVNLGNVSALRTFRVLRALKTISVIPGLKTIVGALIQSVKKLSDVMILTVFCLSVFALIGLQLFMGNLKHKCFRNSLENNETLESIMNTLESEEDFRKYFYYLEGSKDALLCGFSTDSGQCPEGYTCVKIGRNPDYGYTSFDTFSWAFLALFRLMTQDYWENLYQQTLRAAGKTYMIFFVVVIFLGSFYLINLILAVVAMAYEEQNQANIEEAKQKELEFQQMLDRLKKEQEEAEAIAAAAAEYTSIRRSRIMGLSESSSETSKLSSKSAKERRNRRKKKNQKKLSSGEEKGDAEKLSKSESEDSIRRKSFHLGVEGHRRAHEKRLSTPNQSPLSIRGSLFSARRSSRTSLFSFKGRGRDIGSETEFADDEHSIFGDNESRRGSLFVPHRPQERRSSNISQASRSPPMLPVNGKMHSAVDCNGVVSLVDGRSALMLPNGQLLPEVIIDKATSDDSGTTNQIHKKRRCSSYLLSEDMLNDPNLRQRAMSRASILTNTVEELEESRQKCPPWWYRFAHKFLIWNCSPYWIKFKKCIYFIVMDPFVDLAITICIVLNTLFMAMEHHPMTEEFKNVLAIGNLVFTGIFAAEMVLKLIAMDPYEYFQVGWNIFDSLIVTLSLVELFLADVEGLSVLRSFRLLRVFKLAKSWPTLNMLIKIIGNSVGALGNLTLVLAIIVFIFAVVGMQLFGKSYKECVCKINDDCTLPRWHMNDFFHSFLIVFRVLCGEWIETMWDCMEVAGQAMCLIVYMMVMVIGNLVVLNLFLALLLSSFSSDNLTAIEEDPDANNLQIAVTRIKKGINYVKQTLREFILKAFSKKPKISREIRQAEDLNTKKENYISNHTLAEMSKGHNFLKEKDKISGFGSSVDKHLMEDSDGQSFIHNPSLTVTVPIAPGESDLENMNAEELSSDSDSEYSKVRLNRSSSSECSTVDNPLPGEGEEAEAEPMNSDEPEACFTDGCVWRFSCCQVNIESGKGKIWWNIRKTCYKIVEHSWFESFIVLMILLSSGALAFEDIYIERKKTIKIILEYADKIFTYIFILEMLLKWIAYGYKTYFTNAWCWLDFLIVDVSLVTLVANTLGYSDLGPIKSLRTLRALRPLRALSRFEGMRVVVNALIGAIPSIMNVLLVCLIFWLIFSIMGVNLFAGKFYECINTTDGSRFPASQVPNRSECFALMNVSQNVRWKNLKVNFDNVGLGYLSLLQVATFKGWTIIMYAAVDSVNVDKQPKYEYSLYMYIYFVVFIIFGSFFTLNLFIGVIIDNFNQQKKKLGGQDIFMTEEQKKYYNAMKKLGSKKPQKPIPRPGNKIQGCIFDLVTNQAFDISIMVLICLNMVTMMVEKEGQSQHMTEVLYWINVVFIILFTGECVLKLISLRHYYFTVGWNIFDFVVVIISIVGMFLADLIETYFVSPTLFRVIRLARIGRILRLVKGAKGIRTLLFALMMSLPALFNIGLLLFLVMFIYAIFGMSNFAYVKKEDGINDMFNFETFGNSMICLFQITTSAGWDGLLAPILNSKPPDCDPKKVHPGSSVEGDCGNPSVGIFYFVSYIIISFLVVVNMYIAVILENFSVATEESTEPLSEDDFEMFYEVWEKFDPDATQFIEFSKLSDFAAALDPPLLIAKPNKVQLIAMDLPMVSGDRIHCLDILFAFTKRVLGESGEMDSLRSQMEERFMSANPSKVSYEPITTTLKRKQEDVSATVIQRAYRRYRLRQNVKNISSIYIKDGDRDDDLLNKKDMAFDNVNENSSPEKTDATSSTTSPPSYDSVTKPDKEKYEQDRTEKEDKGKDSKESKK

Question: How did the pIC50 turn out when `COc1cc(C(=O)N2CCC3(CC2)c2ccc(C(=O)C(C)(C)C)n2CCN3C)ccc1OC(C)C` [Compound 137] was run?
Answer: ≥ 5.70

Question: How did the pIC50 turn out when `COc1cc(C(=O)N2CCC3(CC2)c2ccc(C(F)(F)F)n2C[C@H](C)N3C)ccc1OC(C)C` [Compound 29] was run?
Answer: ≥ 5.70

Question: `CCN(C)c1ccnc2c(C(=O)N3CCC4(CC3)c3ccc(C(F)(F)F)n3CCN4C)cnn12` [Compound 628] was tested. Which pIC50 did it give?
Answer: ≥ 5.70

Question: `COc1cc(C(=O)N2CCC3(CC2)c2ccc(C(F)(F)F)n2CCN3C)ccc1C(C)(C)CO` [Compound 151] was tested. Which pIC50 did it give?
Answer: ≥ 5.70

Question: `CC(C)COc1ccc(C(=O)N2CCC3(CC2)c2ccc(C(=O)C(F)(F)F)n2CCN3C)nc1` [Compound 712] was tested. Which pIC50 did it give?
Answer: ≥ 5.70

Question: `CCOc1ccc(C(=O)N2CCC3(CC2)c2ccc(Cl)n2CCN3C)cc1OCC` [Compound 86] was tested. Which pIC50 did it give?
Answer: < 5.30

Question: With `CNS(=O)(=O)c1ccc(C(=O)N2CCC3(CC2)c2ccc(C(F)(F)C(F)(F)F)n2CCN3C)cc1C` [Compound 13] as the compound, how does the pIC50 read?
Answer: ≥ 5.70

Question: `COc1ccc(C(=O)N2CCC3(CC2)c2ccc(C(=O)C4(C)CC4)n2CCN3C)cc1C(F)(F)F` [Compound 282] was tested. Which pIC50 did it give?
Answer: ≥ 5.70

Question: With `CC[C@@H](C)Oc1ccc(C(=O)N2CCC3(CC2)c2ccc(C(F)(F)F)n2CCN3C)cc1OC` [Compound 727] as the compound, how does the pIC50 read?
Answer: ≥ 5.70

Question: With `CCc1ccc(C(=O)N2CCC3(CC2)c2ccc(C(F)(F)F)n2CCN3C)nc1` [Compound 345] as the compound, how does the pIC50 read?
Answer: < 5.30

Question: `COc1ccc(C(=O)N2CCC3(CC2)NC(C)(C)Cn2c(C(=O)C(F)(F)F)ccc23)cc1Cl` [Compound 129] was tested. Which pIC50 did it give?
Answer: ≥ 5.70

Question: How did the pIC50 turn out when `COc1ccc(C(=O)N2CCC3(CC2)c2ccc(C(C)=O)n2CCN3C)cc1-c1ccccc1` [Compound 205] was run?
Answer: < 5.30

Question: How did the pIC50 turn out when `COc1cc(C(=O)N2CCC3(CC2)c2ccc(C(=O)N4CCC(C(C)C)CC4)n2CCN3C)ccc1OC(C)C` [Compound 622] was run?
Answer: 5.30 to 5.70

Question: With `CNC(=O)N1CCn2c(C(F)(F)F)ccc2C12CCN(C(=O)c1ccc(OC(C)C)c(OC)c1)CC2` [Compound 119] as the compound, how does the pIC50 read?
Answer: ≥ 5.70

Question: `CC(=O)c1ccc2n1CCN(C)C21CCN(C(=O)c2ccc(OC(C)C)c(Cl)c2)CC1` [Compound 398] was tested. Which pIC50 did it give?
Answer: ≥ 5.70

Question: `Cc1cc(C(=O)N2CCC3(CC2)c2ccc(C(=O)C(C)(C)C)n2CCN3C)ccc1S(=O)(=O)C(C)C` [Compound 654] was tested. Which pIC50 did it give?
Answer: ≥ 5.70

Question: With `CC(C)CCOc1ccc(C(=O)N2CCC3(CC2)c2ccc(C(=O)C(F)(F)F)n2CCN3C)nc1` [Compound 438] as the compound, how does the pIC50 read?
Answer: ≥ 5.70

Question: With `CN1CCn2c(C(=O)C(F)(F)F)ccc2C12CCN(C(=O)c1ccc(Cc3ccccc3)cc1)CC2` [Compound 71] as the compound, how does the pIC50 read?
Answer: ≥ 5.70

Question: How did the pIC50 turn out when `CN1CCn2c(C(F)(F)F)ccc2C12CCN(C(=O)c1ccnc3ccccc13)CC2` [Compound 49] was run?
Answer: ≥ 5.70

Question: How did the pIC50 turn out when `CN(C)c1ncccc1C(=O)N1CCC2(CC1)c1ccc(C(F)(F)F)n1CCN2C` [Compound 652] was run?
Answer: < 5.30

Question: `CC(C)Oc1ccc(C(=O)N2CCC3(CC2)c2ccc(C(=O)C4CC4)n2CCN3C)cc1C(F)(F)F` [Compound 69] was tested. Which pIC50 did it give?
Answer: ≥ 5.70

Question: `CN1CCn2c(Cl)ccc2C12CCN(C(=O)c1ccc(Cc3ccccc3)cc1)CC2` [Compound 334] was tested. Which pIC50 did it give?
Answer: < 5.30

Question: `COc1ccc(C(=O)N2CCC3(CC2)c2c(F)cc(C(F)(F)F)n2CCN3C)cc1C(F)(F)F` [Compound 255] was tested. Which pIC50 did it give?
Answer: ≥ 5.70

Question: `COc1cc(C(=O)N2CCC3(CC2)c2ccc(C(C)=O)n2CCN3C)ccc1OC(C)C` [Compound 535] was tested. Which pIC50 did it give?
Answer: < 5.30

Question: `COc1cc(C(=O)N2CCC3(CC2)NC(C)(C)Cn2c(C(=O)C(F)(F)F)ccc23)ccc1C(C)(C)C` [Compound 705] was tested. Which pIC50 did it give?
Answer: ≥ 5.70

Question: With `CN1CCn2c(C(F)(F)F)ccc2C12CCN(C(=O)c1cc3occc3n1C)CC2` [Compound 365] as the compound, how does the pIC50 read?
Answer: ≥ 5.70

Question: How did the pIC50 turn out when `CN1CCn2c(C(=O)C(F)(F)F)ccc2C12CCN(C(=O)c1ccc(CC(C)(C)O)cc1)CC2` [Compound 688] was run?
Answer: ≥ 5.70

Question: How did the pIC50 turn out when `Cc1nc(C(=O)N2CCC3(CC2)c2ccc(C(=O)C(F)(F)F)n2C(C)CN3C)ccc1OC(C)C` (stereo not drawn) [Compound 556] was run?
Answer: ≥ 5.70

Question: How did the pIC50 turn out when `CCc1ccc(C(=O)N2CCC3(CC2)c2c(F)cc(C(F)(F)F)n2CCN3C)cc1OC` [Compound 668] was run?
Answer: ≥ 5.70

Question: `Cc1cc(C(=O)N2CCC3(CC2)c2ccc(C(F)(F)F)n2CCN3C2CC2)ccc1S(=O)(=O)C(C)C` [Compound 492] was tested. Which pIC50 did it give?
Answer: ≥ 5.70

Question: With `COCCN1CCn2cccc2C12CCN(C(=O)c1ccc(OC(C)C)c(C)c1)CC2` [Compound 269] as the compound, how does the pIC50 read?
Answer: ≥ 5.70

Question: With `Cc1cc(C(=O)N2CC[C@]3(c4ccc(C(F)(F)F)n4CCN3C)[C@H](F)C2)ccc1OC(C)C` [Compound 475] as the compound, how does the pIC50 read?
Answer: ≥ 5.70

Question: With `CN1CCn2c(C(F)(F)F)cc(F)c2C12CCN(C(=O)c1ccc(CC(C)(C)O)cc1)CC2` [Compound 313] as the compound, how does the pIC50 read?
Answer: ≥ 5.70

Question: How did the pIC50 turn out when `CN1CCn2c(C(=O)C3CC3)ccc2C12CCN(C(=O)c1ccc(O)c(Cl)c1)CC2` [Compound 31] was run?
Answer: 5.30 to 5.70

Question: With `Cc1cc(C(=O)N2CCC3(CC2)c2ccc(C(=O)C(F)(F)F)n2CCN3C)cc(C)c1O` [Compound 238] as the compound, how does the pIC50 read?
Answer: ≥ 5.70

Question: With `C[C@H]1Cn2c(C(=O)C(F)(F)F)ccc2C2(CCN(C(=O)c3ccc(S(=O)(=O)C(F)(F)F)cc3)CC2)N1C` [Compound 649] as the compound, how does the pIC50 read?
Answer: ≥ 5.70

Question: How did the pIC50 turn out when `COc1cc(C(=O)N2CCC3(CC2)c2ccc(C(F)(F)F)n2CCN3C=O)ccc1OC(C)C` [Compound 362] was run?
Answer: < 5.30

Question: How did the pIC50 turn out when `Cc1cc(C(=O)N2CCC3(CC2)c2c(Cl)cc(C(F)(F)F)n2CCN3C)ccc1C(C)(C)O` [Compound 466] was run?
Answer: ≥ 5.70

Question: `CC1(C)Cn2c(C(=O)C(F)(F)F)ccc2C2(CCN(C(=O)c3ccc(C(C)(C)O)c(F)c3)CC2)N1` [Compound 254] was tested. Which pIC50 did it give?
Answer: ≥ 5.70

Question: `COc1ccc(C(=O)N2CCC3(CC2)c2ccc(C(=O)C(C)C)n2CCN3C)cc1Cl` [Compound 413] was tested. Which pIC50 did it give?
Answer: ≥ 5.70

Question: With `CCOc1ccc(C(=O)N2CCC3(CC2)c2ccc(C(=O)C(F)(F)F)n2CCN3C)cc1F` [Compound 446] as the compound, how does the pIC50 read?
Answer: 5.30 to 5.70

Question: `CN1CCn2c(C(F)(F)F)cc(Cl)c2C12CCN(C(=O)c1ccc(COCC(F)(F)F)cc1)CC2` [Compound 75] was tested. Which pIC50 did it give?
Answer: ≥ 5.70

Question: How did the pIC50 turn out when `CN1CCn2c(C(O)C(F)(F)F)ccc2C12CCN(C(=O)c1ccc(C3CCCCC3)cc1)CC2` (stereo not drawn) [Compound 631] was run?
Answer: < 5.30

Question: `CN1CCn2c(C(=O)C3(C)CC3)ccc2C12CCN(C(=O)c1ccc(S(=O)(=O)C(C)(C)C)cc1)CC2` [Compound 689] was tested. Which pIC50 did it give?
Answer: < 5.30

Question: `CCc1ccc(C(=O)N2CCC3(CC2)c2ccc(Cl)n2CCN3C)cc1OC` [Compound 512] was tested. Which pIC50 did it give?
Answer: 5.30 to 5.70

Question: With `CC[C@@H](C)Oc1ccc(C(=O)N2CCC3(CC2)c2ccc(C(F)(F)C(F)(F)F)n2CCN3C)cc1OC` [Compound 412] as the compound, how does the pIC50 read?
Answer: ≥ 5.70

Question: With `COc1ccc(C(=O)N2CCC3(CC2)NC(C)(C)Cn2c(C(=O)C(F)(F)F)ccc23)c(F)c1` [Compound 312] as the compound, how does the pIC50 read?
Answer: ≥ 5.70

Question: How did the pIC50 turn out when `CN1CCn2c(C(=O)C(F)(F)F)ccc2C12CCN(C(=O)c1ccc(Cl)c(O)c1)CC2` [Compound 271] was run?
Answer: < 5.30

Question: `Cc1cc(C(=O)N2CCC3(CC2)c2ccc(C(F)(F)F)n2CCN3C2CC2)ccc1C(C)(C)O` [Compound 307] was tested. Which pIC50 did it give?
Answer: ≥ 5.70

Question: `COc1ccc(C(=O)N2CCC3(CC2)c2ccc(C(=O)c4ccccc4)n2CCN3C)cc1C` [Compound 694] was tested. Which pIC50 did it give?
Answer: 5.30 to 5.70

Question: How did the pIC50 turn out when `CN1CCn2c(C(F)(F)F)ccc2C12CCN(C(=O)c1cccc(Cl)c1)CC2` [Compound 166] was run?
Answer: < 5.30

Question: With `CC(C)Oc1ccc(C(=O)N2CCC3(CC2)NC(C)(C)Cn2c(C(=O)C(F)(F)F)ccc23)cc1Cl` [Compound 270] as the compound, how does the pIC50 read?
Answer: ≥ 5.70

Question: With `CC(C)S(=O)(=O)c1ccc(C(=O)N2CCC3(CC2)c2c(F)cc(C(F)(F)F)n2CCN3C)cc1` [Compound 363] as the compound, how does the pIC50 read?
Answer: ≥ 5.70

Question: With `COc1ccc(C(=O)N2CCC3(CC2)c2ccc(C(=O)C4CC4)n2CCN3C)cc1C` [Compound 521] as the compound, how does the pIC50 read?
Answer: ≥ 5.70
